The record followed here is PMC3985777 (Biochemistry, 2014).

In test [1] the target is HasAp (Pseudomonas aeruginosa, UniProt G3XD33, H83A). The test is described as follows: biochemical.
The target in test [2] is HasAp (Pseudomonas aeruginosa, UniProt G3XD33, Y75A). The test is described as follows: biochemical.

As for `C=CC1=C(C)C2=Cc3c(C=C)c(C)c4[n]3[Fe]([Cl])[n]3c(c(C)c(CCC(=O)O)c3=CC3=NC(=C4)C(C)=C3CCC(=O)O)=CC1=N2` [hemin], the figures for the Kd at HasAp [1] and on HasAp [2] were 30 µM and 129 µM, respectively.
